Reference: patent publication US10961234B2, “Oxazole derivatives for use in the treatment of cancer” (LIFEARC, priority 2016, dated 2021)

What was measured:
WT full length PAICS = target: T1, WT full length PAICS (Homo sapiens, UniProt P22234); assay: Biochemical assay to measure PAICS activity (Transcreener ADP2 FI, SAICAR synthetase reaction); details: PAICS 2.5 nM, 30 mins pre-incubation, ADP detection by fluorescence intensity
T1 construct: 5 μl WT full length PAICS (final assay concentration, fac, 2.5 nM) in basic buffer
T1 sequence (P22234 1-425): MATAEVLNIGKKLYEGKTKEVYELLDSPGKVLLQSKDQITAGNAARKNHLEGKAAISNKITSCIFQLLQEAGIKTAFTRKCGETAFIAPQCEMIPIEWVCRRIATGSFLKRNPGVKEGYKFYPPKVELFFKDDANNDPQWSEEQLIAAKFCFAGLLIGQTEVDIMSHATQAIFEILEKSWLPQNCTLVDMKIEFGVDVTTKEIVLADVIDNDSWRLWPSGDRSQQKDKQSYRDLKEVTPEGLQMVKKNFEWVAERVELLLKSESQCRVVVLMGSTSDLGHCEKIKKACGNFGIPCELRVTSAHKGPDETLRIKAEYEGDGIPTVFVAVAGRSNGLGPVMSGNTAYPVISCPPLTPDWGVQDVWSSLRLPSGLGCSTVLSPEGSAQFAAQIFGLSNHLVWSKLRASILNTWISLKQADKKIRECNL
Description: The biochemical assay was used to measure PAICS SAICAR synthetase-mediated conversion of CAIR, aspartic acid and ATP to SAICAR, ADP and inorganic phosphate (PI), post-AIR/CAIR equilibration (see FIG. 3). This was achieved by detecting the ADP generated during the reaction, using Bellbrook Lab's Transcreener ADP^2 FI assay. An increase in the fluorescence intensity is directly proportional to the amount of PAICS activity.
The Transcreener ADP^2 FI assay is a homogeneous competitive displacement fluorescence intensity assay which uses direct immunodetection of ADP. Displacement of the tracer by ADP causes an increase in the fluorescence at excitation 590 nm and emission 617 nm (FIG. 3).
5 μl WT full length PAICS (final assay concentration, fac, 2.5 nM) in basic buffer, added to black, non-binding, 384-well plates (Corning #3575), columns 1 to 22.5 μl basic buffer was added to columns 23+24 (negative control). PAICS stock at 31.9 μM from the PI's lab (Steve Firestine). Basic buffer contained 50 mM Tris-HCl pH8 and 0.5 mM EDTA, fac.
1 μl compound in 100% DMSO added per well, or 1 μl 100% DMSO to positive controls (columns 1+2) and negative controls (columns 23+24). Final assay top concentration of compound either 1 mM or 30 μM, serially diluted with half-log dilutions across the plate in duplicate (one 10-point concentration response curve across wells 3 to 12, another across 13 to 22). Compounds pre-incubated with PAICS enzyme for 30 mins at RT.
2 μl CAIR added (fac 10 μM) in basic buffer plus 25 mM MgCl2 and 50 mM KHCO3 fac to all wells. CAIR stock 50 mM from Steve Firestine's lab. 1 hr RT incubation for AIR-CAIR equilibration. NB: ˜50% CAIR is decarboxylated during equilibration therefore 5 μM remains for the synthetase reaction.
2 μl ATP/aspartic acid added (fac 30 μM/180 μM) in reaction buffer to all wells. 30 mins RT incubation for appropriate level of ATP turnover. Reaction buffer contained basic buffer plus 10 mM DTT, 0.01% BSA and 0.01% Brij 35, fac.
10 μl ADP detection reagent added to all wells (as per instructions, Transcreener ADP^2 FI kit, BellBrook Labs #3013-10K). Incubation for 1 h at RT to allow antibody equilibration. Fluorescence intensity determined using a Tecan Safire2 (excitation at 590 nm, emission at 617 nm).

[1] = test system: LM2 and MDA-MB-231 breast cancer cell lines; assay: PAICS 2D cell proliferation assay; assay type: cell-based; details: Homo sapiens; 72 hours incubation; cell line (LM2 or MDA-MB-231) not given
Description: Frozen cryovial stocks of LM2 and MDA-MB-231 breast cancer cell lines were thawed and cultured in 4.5 g/L glucose DMEM (31966-047, Invitrogen) supplemented with 10% Fetal Bovine Serum (10500-064, Invitrogen) until confluent in a T175 flask. Cells were incubated at 37° C. with 5% CO2 in a humidified incubator.
Cells were collected from T175 flasks by washing with PBS (10010-056, Invitrogen) and dissociated using Accutase (A6964, Sigma Aldrich). This was followed by centrifuging (1200 rpm, 5 min) and resuspending the cells in 10 ml of media containing 1% penicillin/streptomycin (15140-122, Invitrogen). Cells were counted by trypan blue exclusion method using an automated cell counter (Cellometer) and diluted to a concentration of 40,000/ml. 1000 cells were then seeded into 384-well white-walled plates (Corning, 3707) in a volume of 25 μl. Plates were incubated overnight at 37° C. with 5% CO2.
After 24 hours, PAICS compounds were added onto the assay plates using an HP D300 Digital Dispenser (Hewlett Packard). 10 mM stocks were used and dispensed as a 10 point concentration response curve (CRC) ½ log dilution series with a final top concentration of 100 μM. Controls were added onto each plate: positive controls included Staurosporine CRC (100 μM stock dispensed as a 10 point CRC ½ log dilution series with a final top concentration of 1 μM) and PAICS compound MRT00211919 (10 mM stock dispensed as a 10 point CRC ½ log dilution series with a final top concentration of 100 μM); a high control of Staurosporine (0.1 μM (LM2), 0.316 μM (MDA-MB-231) FAC) and a low control of media containing 1% DMSO. A final concentration of 1% DMSO was then added across the plates for normalisation. Following compound addition, assay plates were incubated for 72 hours at 37° C. with 5% CO2.
After 72 h incubation, dead and viable cells were measured in each assay plate. Cytotoxicity was assessed through fluorescent DNA staining using the CellTox™ Green Cytotoxicity Assay kit (G8743, Promega) following the manufacturer's multiplexing protocol. Impaired cell membrane integrity results in the access of dye to stain DNA allowing quantification of dead cells. Cell viability was determined following ATP quantification using the CellTiter-Glo® Luminescent Cell Viability Assay kit (G7572, Promega) following the manufacturer's protocol. ATP released from lysed cells allowed for the generation of a signal proportional to the number of cells present in the well. All endpoint reads were performed using the PheraSTAR Plus (BMG Labtech). Data is expressed as % viable cells and % dead cells against controls (mean±SEM of duplicate curves).

| SMILES | IC50 (WT full length PAICS) | EC50 [1] |
| --- | --- | --- |
| CSc1ccc(-c2ccc(OCCCN(C)C)nc2)cc1NC(=O)c1coc(N)n1 [Example 92, 2-Amino-N-[5-{6-[3-(dimethylamino)propoxy]pyridin-3-yl}-2-(methylsulfanyl)phenyl]-1,3-oxazole-4-carboxamide] | 25 to 100 nM | 250 to 500 nM |
| Nc1nc(C(=O)Nc2cc(-c3ccc(CN[C@H]4CC[C@H](N)CC4)nc3)ccc2Cl)co1 [Example 77, 2-Amino-N-[5-(6-{[(trans-4-aminocyclohexyl)amino]methyl}pyridin-3-yl)-2-chlorophenyl]-1,3-oxazole-4-carboxamide] | 10 to 25 nM | 250 to 500 nM |
| Nc1nc(C(=O)Nc2cc(-c3cnn(CCCNC4CC4)c3)ccc2Cl)co1 [Example 48, 2-Amino-N-(2-chloro-5-(1-(3-(cyclopropylamino)propyl)-1H-pyrazol-4-yl)phenyl)oxazole-4-carboxamide] | 10 to 25 nM | 100 to 250 nM |
| CN(C)CCCOc1ccc(-c2ccc(Cl)c(NC(=O)c3coc(N)n3)c2)cn1 [Example 72, 2-Amino-N-(2-chloro-5-{6-[3-(dimethylamino)propoxy]pyridin-3-yl}phenyl)-1,3-oxazole-4-carboxamide] | 10 to 25 nM | 100 to 250 nM |
| Nc1nc(C(=O)Nc2cc(-c3ccc(N4CCNCC4)cc3)ccc2Cl)co1 [Example 39, 2-Amino-N-[4-chloro-4′-(piperazin-1-yl)biphenyl-3-yl]-1,3-oxazole-4-carboxamide] | > 100 nM | 250 to 500 nM |
| CN1CCC(NCc2ccc(-c3ccc(Cl)c(NC(=O)c4coc(N)n4)c3)cn2)CC1 [Example 78, 2-Amino-N-[2-chloro-5-(6-{[(1-methylpiperidin-4-yl)amino]methyl}pyridin-3-yl)phenyl]-1,3-oxazole-4-carboxamide] | 10 to 25 nM | 100 to 250 nM |
| CC(C)NCCCOc1ccc(-c2ccc(Cl)c(NC(=O)c3coc(N)n3)c2)cn1 [Example 71, 2-Amino-N-(2-chloro-5-(6-(3-(isopropylamino)propoxy)pyridin-3-yl)phenyl)oxazole-4-carboxamide] | 10 to 25 nM | 100 to 250 nM |
| Nc1nc(C(=O)Nc2cc(-c3ccc(CN4CCNCC4)nc3)ccc2Cl)co1 [Example 76, 2-Amino-N-{2-chloro-5-[6-(piperazin-1-ylmethyl)pyridin-3-yl]phenyl}-1,3-oxazole-4-carboxamide] | 25 to 100 nM | 250 to 500 nM |
| Nc1nc(C(=O)Nc2cc(-c3cnc(CN4CCNCC4)s3)ccc2Cl)co1 [Example 90, 2-Amino-N-{2-chloro-5-[2-(piperazin-1-ylmethyl)-1,3-thiazol-5-yl]phenyl}-1,3-oxazole-4-carboxamide] | 10 to 25 nM | 100 to 250 nM |

Now from value to compound:

| IC50 (WT full length PAICS) | EC50 [1] | SMILES |
| --- | --- | --- |
| < 10 nM | 100 to 250 nM | CNC1CCCN(Cc2ncc(-c3ccc(Cl)c(NC(=O)c4coc(N)n4)c3)s2)C1 (centres unmarked) [Example 95, 2-Amino-N-[2-chloro-5-(2-{[3-(methylamino)piperidin-1-yl]methyl}-1,3-thiazol-5-yl)phenyl]-1,3-oxazole-4-carboxamide] |
| > 100 nM | 250 to 500 nM | CC1CN(C(=O)Cn2cc(-c3ccc(Cl)c(NC(=O)c4coc(N)n4)c3)cn2)CCN1 (centres unmarked) [Example 60, 2-Amino-N-(2-chloro-5-{1-[2-(3-methylpiperazin-1-yl)-2-oxoethyl]-1H-pyrazol-4-yl}phenyl)-1,3-oxazole-4-carboxamide] |
| 25 to 100 nM | 250 to 500 nM | CN1CCC(NC(=O)Cn2cc(-c3ccc(Cl)c(NC(=O)c4coc(N)n4)c3)cn2)CC1 [Example 61, 2-Amino-N-[2-chloro-5-(1-{2-[(1-methylpiperidin-4-yl)amino]-2-oxoethyl}-1H-pyrazol-4-yl)phenyl]-1,3-oxazole-4-carboxamide] |
| 25 to 100 nM | 100 to 250 nM | Nc1nc(C(=O)Nc2cc(-c3cnn(C4CCNC4)c3)ccc2Cl)co1 (centres unmarked) [Example 41, 2-Amino-N-{2-chloro-5-[1-(pyrrolidin-3-yl)-1H-pyrazol-4-yl]phenyl}-1,3-oxazole-4-carboxamide] |
| 25 to 100 nM | 250 to 500 nM | CN(C)CCOc1ccc(-c2ccc(Cl)c(NC(=O)c3coc(N)n3)c2)cn1 [Example 73, 2-Amino-N-(2-chloro-5-(6-(2-(dimethylamino)ethoxy)pyridin-3-yl)phenyl)oxazole-4-carboxamide] |
| 10 to 25 nM | < 100 nM | CNCC1CCN(Cc2ncc(-c3ccc(Cl)c(NC(=O)c4coc(N)n4)c3)s2)CC1 [Example 94, 2-Amino-N-{2-chloro-5-[2-({4-[(methylamino)methyl]piperidin-1-yl}methyl)-1,3-thiazol-5-yl]phenyl}-1,3-oxazole-4-carboxamide] |
| 10 to 25 nM | 250 to 500 nM | Nc1nc(C(=O)Nc2cc(-c3ccc(OC4CCNC4)nc3)ccc2Cl)co1 (centres unmarked) [Example 68, 2-Amino-N-(2-chloro-5-(6-(pyrrolidin-3-yloxy)pyridin-3-yl)phenyl)oxazole-4-carboxamide] |
| 25 to 100 nM | 250 to 500 nM | CN(C)C1CCN(C(=O)Cn2cc(-c3ccc(Cl)c(NC(=O)c4coc(N)n4)c3)cn2)CC1 [Example 59, 2-Amino-N-[2-chloro-5-(1-{2-[4-(dimethylamino)piperidin-1-yl]-2-oxoethyl}-1H-pyrazol-4-yl)phenyl]-1,3-oxazole-4-carboxamide] |
| 10 to 25 nM | 250 to 500 nM | Nc1nc(C(=O)Nc2cc(-c3ccn(C4CCNCC4)n3)ccc2Cl)co1 [Example 54, 2-amino-N-{2-chloro-5-[1-(piperidin-4-yl)-1H-pyrazol-3-yl]phenyl}-1,3-oxazole-4-carboxamide] |
| < 10 nM | < 100 nM | CNCCCn1cc(-c2ccc(Cl)c(NC(=O)c3coc(N)n3)c2)cn1 [Example 49, 2-Amino-N-(2-chloro-5-(1-(3-(methylamino)propyl)-1H-pyrazol-4-yl)phenyl)oxazole-4-carboxamide] |
